This assay deals with T1, human secreted PLA2 (Homo sapiens, UniProt P14555).
T1 sequence (P14555 21-144): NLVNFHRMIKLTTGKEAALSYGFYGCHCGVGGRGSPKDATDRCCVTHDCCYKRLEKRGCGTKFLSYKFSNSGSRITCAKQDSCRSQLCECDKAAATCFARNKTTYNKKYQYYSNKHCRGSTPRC
Put plainly: chromogenic assay of recombinant human secreted phospholipase A2 inhibition (Assay Example 1). Particulars: mean of 3-5 tests; 40° C., 30 minutes, pH 7.5, 405 nanometers; read-out: Inhibition of human secreted PLA2 IC50 ± mean deviation (3-5 tests). The class given is biochemical. An excerpt: The assay described herein has been adapted for high volume screening using 96 well microtiter plates. A general description of this assay method is found in the article, "Analysis of Human Synovial Fluid Phospholipase A2 on Short Chain Phosphatidylcholine-Mixed Micelles: Development of a Spectrophotometric Assay Suitable for a Microtiterplate Reader", by Laure J. Reynolds, Lori L. […] Reagents, the disclosure of which is incorporated herein by reference. REACTION BUFFER CaCl2.2H20 (1.47 g/L) KCl (7.455 g/L) Bovine Serum Albumin (fatty acid free) (1 g/L) (Sigma A-7030, product of Sigma Chemical Co. St. Louis Mo., USA) TRIS HCl (3.94 g/L) pH 7.5 (adjust with NaOH) ENZYME BUFFER […] 0.2 NaCl Adjust pH to 4.5 with acetic acid DTNB […] RACEMIC DIHEPTANOYL THIO - PC […] TRITON X-100™ prepare at 6.249 mg/ml in reaction buffer to equal […]. REACTION MIXTURE A measured volume of racemic dipheptanoyl thio PC supplied in chloroform at a concentration of 100 mg/ml is taken to dryness and redissolved in 10 millimolar TRITON X-100™ nonionic detergent aqueous solution. Reaction Buffer is added to the solution, then DTNB to give the Reaction Mixture. The reaction mixture thus obtained contains 1 mM diheptanoly thio-PC substrate, 0.29 mM Triton X-100™ detergent, and 0.12 mM DTMB in a buffered aqueous solution at pH 7.5. Assay Procedure: 1. Add 0.2 ml reaction mixture to all wells; 2. Add 10 ul test compound (or solvent blank) to appropriate wells, mix 20 seconds; 3. Add 50 nanograms of sPLA2 (10 microliters) to appropriate wells; 4. Incubate plate at 40° C. for 30 minutes; […] Read absorbance of wells at 405 nanometers with an automatic plate reader. All compounds were tested in triplicate. Typically, compounds were tested at a final concentration of 5 ug/ml. […] Lack of color development at 405 nanometers evidenced inhibition. Compounds initially found to be active were reassayed to confirm their activity and, if sufficiently active, IC50 values were determined. […] In all cases, % inhibition measured at 405 nanometers generated by enzyme reactions containing inhibitors relative to the uninhibited control reactions was determined. Each sample was titrated in triplicate and result values were averaged for plotting and calculation of IC50 values. […] IC50 values were determined at least three times for each compound tested.
On to `COc1ccc2c(c1)c(CC(=O)NN)c(C)n2Cc1cccc(C)c1` [Example 22, 5-Methoxy-1-[(3-methylphenyl)methyl]-2-methyl-1H-indole-3-acetic acid hydrazide], for which the IC50 (commonly the concentration that gives 50% inhibition) came to 1.54 ± 0.67 µM.
As for `COc1ccc2c(c1)c(CC(=O)NN)c(C)n2Cc1ccc(O)cc1` [Example 33, 1-[(4-Hydroxyphenyl)methyl]-5-methoxy-2-methyl-1H-indole-3-acetic acid hydrazide], the IC50 came out at 5.96 ± 2.03 µM.
For `COc1ccc2c(c1)c(CC(=O)NN)cn2Cc1ccccc1-c1ccccc1` [Example 12, 1-([1,1'-Biphenyl]-2-ylmethyl)-5-methoxy-1H-indole-3-acetic acid hydrazide] the value was 5.49 ± 4.29 µM.
For `Cc1c(CC(=O)NN)c2ccc(Cl)cc2n1Cc1ccccc1` [Example 8, 6-Chloro-2-methyl-1-(phenylmethyl)-1H-indole-3-acetic acid hydrazide] the value was 1.14 ± 0.44 µM; for `Cc1c(CC(=O)NN)c2cc(C(C)(C)C)ccc2n1Cc1ccccc1` [Example 60, 5-tert-Butyl-2-methyl-1-(phenylmethyl)-1H-indole-3-acetic acid hydrazide], 1.02 ± 0.35 µM; for `Cc1c(CC(=O)NN)c2cc(Br)ccc2n1Cc1ccccc1` [Example 50, 5-Bromo-2-methyl-1-(phenylmethyl)-1H-indole-3-acetic acid hydrazide], 1.02 ± 0.43 µM.
For `CCCCCCCCCCn1c(C)c(CC(=O)NN)c2cc(OC)ccc21` [Example 14, 1-Decyl-5-methoxy-2-methyl-1H-indole-3-acetic acid hydrazide] the value was 7.08 ± 1.61 µM; for `COc1ccc2c(c1)c(CC(=O)NN)c(C)n2Cc1ccc2ccccc2n1` [Example 40, 5-Methoxy-2-methyl-1-[(2-quinolyl)methyl]-1H-indole-3-acetic acid hydrazide], 8.15 ± 3.27 µM; for `COc1ccc2c(c1)c(CC(=O)NN)c(C)n2Cc1c(Cl)cccc1Cl` [Example 21, 1-(2,6-Dichlorophenylmethyl)-5-methoxy-2-methyl-1H-indole-3-acetic acid hydrazide], 0.64 ± 0.19 µM.
For `COc1ccc2c(c1)c(CC(=O)NN)c(C)n2CC(C)C` [Example 13, 5-Methoxy-2-methyl-1-(2-methyl-1-propyl)-1H-indole-3-acetic acid hydrazide], the IC50 is 9.88 ± 3.41 µM.
For `COc1ccc2c(c1)c(CC(=O)NN)c(C)n2C(C)c1ccccc1` (centres unmarked) [Example 36, 5-Methoxy-2-methyl-1-(1-phenylethyl)-1H-indole-3-acetic acid hydrazide] the value was 5.32 ± 1.93 µM; for “5-Methoxy-1-(phenylmethyl)-1H-indole-3-butanoic acid hydrazide [Example 66]”, 9.96 ± 5.61 µM; for `CCOc1ccc2c(c1)c(CC(=O)NN)c(C)n2Cc1ccccc1` [Example 1, 5-Ethoxy-2-methyl-1-(phenylmethyl)-1H-indole-3-acetic acid hydrazide], 0.8 ± 0.25 µM.
For `COc1ccc2c(c1)c(CC(=O)NN)c(C)n2CCCCc1ccccc1` [Example 42, 5-Methoxy-2-methyl-1-(4-phenylbutyl)-1H-indole-3-acetic acid hydrazide] the value was 16.5 ± 3.58 µM.
For `Cc1c(CC(=O)NN)c2cc(OCc3ccc4ccccc4n3)ccc2n1Cc1ccc(Cl)cc1` [Example 63, 1-[(4-Chlorophenyl)methyl]-2-methyl-5-[(2-quinolyl)methoxy]-1H-indole-3-acetic acid hydrazide] the value was 8.46 ± 5.45 µM; for “5-Methoxy-1-(phenylmethyl)-1H-indole-3-propanoic acid hydrazide [Example 64]”, 5.9 ± 2.99 µM.
In the case of `CCCCCCCCCCCCCCCCCCn1c(C)c(CC(=O)NN)c2cc(OC)ccc21` [Example 15, 5-Methoxy-2-methyl-1-octadecyl-1H-indole-3-acetic acid hydrazide], the half-inhibitory concentration (IC50) is above 100 µM.
For `COc1cccc(Cn2c(C)c(CC(=O)NN)c3cc(OC)ccc32)c1` [Example 27, 5-Methoxy-1-[(3-methoxyphenyl)methyl]-2-methyl-1H-indole-3-acetic acid hydrazide] the value was 2.18 ± 0.51 µM; for `Cc1c(CC(=O)NN)c2cc(OCc3ccc4ccccc4n3)ccc2n1Cc1ccccc1` [Example 62, 2-Methyl-1-(phenylmethyl)-5-[(2-quinolyl)methoxy]-1H-indole-3-acetic acid hydrazide], 0.36 ± 0.17 µM; for `Cc1c(CC(=O)NN)c2cc(F)ccc2n1Cc1ccccc1` [Example 47, 5-Fluoro-2-methyl-1-(phenylmethyl)-1H-indole-3-acetic acid hydrazide], 1.49 ± 0.34 µM.
For `COc1ccc2c(c1)c(CC(=O)NN)c(C)n2Cc1cccc([N+](=O)[O-])c1` [Example 34, 5-Methoxy-2-methyl-1-[(3-nitrophenyl)methyl]-1H-indole-3-acetic acid hydrazide] the value was 15.2 ± 0.77 µM; for `Cc1c(CC(=O)NN)c2ccccc2n1Cc1ccccc1` [Example 10, 2-Methyl-1-(phenylmethyl)-1H-indole-3-acetic acid hydrazide], 2.36 ± 0.5 µM; for `Cc1c(CC(=O)NN)c2c(Br)cccc2n1Cc1ccccc1` [Example 53, 4-Bromo-2-methyl-1-(phenylmethyl)-1H-indole-3-acetic acid hydrazide], 2.06 ± 0.94 µM.
On to `COc1ccc2c(c1)c(CC(=O)NN)c(C)n2Cc1ccccc1OC` [Example 26, 5-Methoxy-1-[(2-methoxyphenyl)methyl]-2-methyl-1H-indole-3-acetic acid hydrazide], for which the IC50 was determined as 3.26 ± 1.74 µM.
For `Cc1c(CC(=O)NN)c2cc(Br)ccc2n1Cc1cccc(-c2ccccc2)c1` [Example 51, 1-([1,1'-biphenyl]-3-ylmethyl)-5-bromo-2-methyl-1H-indole-3-acetic acid hydrazide] the value was 1.34 ± 0.44 µM; for `COc1ccc2c(c1)c(CC(=O)NN)c([S+](C)[O-])n2Cc1ccccc1` (centres unmarked) [Example 46, 5-Methoxy-2-methylsulfinyl-1-(phenylmethyl)-1H-indole-3-acetic acid hydrazide], 46.1 ± 24.7 µM; for `Cc1c(CC(=O)NN)c2c(-c3ccccc3)cccc2n1Cc1ccccc1` [Example 55, 2-Methyl-4-phenyl-1-(phenylmethyl)-1H-indole-3-acetic acid hydrazide], 2.06 ± 0.94 µM.
For `CCc1c(CC(=O)NN)c2cc(F)ccc2n1Cc1ccccc1` [Example 7, 2-Ethyl-5-fluoro-1-(phenylmethyl)-1H-indole-3-acetic acid hydrazide] the value was 1.52 ± 0.56 µM.
For `COc1ccc2c(c1)c(CC(=O)NN)c(C)n2Cc1ccncc1` [Example 39, 5-Methoxy-2-methyl-1-[(4-pyridyl)methyl]-1H-indole-3-acetic acid hydrazide] the value was 45.9 ± 13.1 µM.
For “5-Methoxy-2-methyl-1-(phenylmethyl)-1H-indole-3-propanoic acid hydrazide [Example 65]”, the IC50 turned out to be 32.6 µM.
With “5-Methoxy-2-methyl-1-(phenylmethyl)-1H-indole-3-butanoic acid hydrazide [Example 67]”, the IC50 was 24.2 ± 10.7 µM.
For `Cc1ccc2c(c1)c(CC(=O)NN)c(C)n2Cc1ccccc1` [Example 59, 2,5-Dimethyl-1-(phenylmethyl)-1H-indole-3-acetic acid hydrazide] the value was 0.76 ± 0.35 µM.

For the origin of these results see patent US5578634A, “1H-indole-3-acetic acid hydrazide sPLA2 inhibitors” (Eli Lilly and Company, priority 1995, dated 1996).
